A word on the IC50: it is the point on the concentration scale where inhibition reaches its midpoint. A higher IC50 goes with weaker potency.

This assay deals with T1, human MDM2 (GST-hMDM2 1-188), interaction with biotinylated-p53 (1-83) (Homo sapiens, UniProt Q00987).
T1 construct: Amino acid residues 1-188 of human MDM2 were expressed; made in house; host or cells: Escherichia coli
T1 sequence (Q00987 1-188): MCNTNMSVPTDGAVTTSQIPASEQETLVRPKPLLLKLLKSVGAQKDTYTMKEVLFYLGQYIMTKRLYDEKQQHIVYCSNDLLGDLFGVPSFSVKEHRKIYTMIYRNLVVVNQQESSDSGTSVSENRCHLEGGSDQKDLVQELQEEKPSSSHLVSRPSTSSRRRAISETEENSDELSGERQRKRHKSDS
Put plainly: improved HTRF assay (HTRF2 assay), inhibition of HDM2-p53 interaction. The following applies: 0.2 nM GST-hMDM2, 0.5 nM biotinylated-p53, 100 mM KF. Type of assay: binding. The method, boiled down: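 Time-resolved fluorescence (HTRF) read after >4 h equilibration with SA-XLent/anti-GST cryptate/KF detection reagents. Reaction: compound plus GST-hMDM2 for 20 min at room temperature, then E. coli-expressed biotinylated p53 residues 1-83 for 60 min, 2% DMSO final. Inhibition expressed versus nutlin-3.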
In general terms: TR-FRET usually uses a lanthanide donor and a delayed reading to cut background.
In turn, `CC(C)(C)S(=O)(=O)C[C@@H](C1CCC1)N1C(=O)[C@@H](CC(=O)O)O[C@H](c2cccc(Cl)c2)[C@H]1c1ccc(Cl)cc1` (single isomer, unassigned) [Example 272, 2-((2R,5R,6R)-4-((R)-2-(tert-Butylsulfonyl)-1-cyclobutylethyl)-6-(3-chlorophenyl)-5-(4-chlorophenyl)-3-oxomorpholin-2-yl)acetic acid or 2-((2S,5R,6R)-4-((R)-2-(tert-butylsulfonyl)-1-cyclobutylethyl)-6-(3-chlorophenyl)-5-(4-chlorophenyl)-3-oxomorpholin-2-yl)acetic acid] returned an IC50 of 154 nM. To `CC(C)(C)S(=O)(=O)C[C@@H](C1CCC1)N1C(=O)[C@@H](CC(=O)O)O[C@H](c2cccc(Cl)c2)[C@H]1c1ccc(Cl)cc1` (single isomer, unassigned) [Example 273, 2-((2R,5R,6R)-4-((R)-2-(tert-Butylsulfonyl)-1-cyclobutylethyl)-6-(3-chlorophenyl)-5-(4-chlorophenyl)-3-oxomorpholin-2-yl)acetic acid or 2-((2S,5R,6R)-4-((R)-2-(tert-butylsulfonyl)-1-cyclobutylethyl)-6-(3-chlorophenyl)-5-(4-chlorophenyl)-3-oxomorpholin-2-yl)acetic acid] belongs 95 nM; to `O=C(O)C[C@H]1O[C@H](c2cccc(Cl)c2)[C@@H](c2ccc(Cl)cc2)N([C@H](CN(c2ccccc2F)S(=O)(=O)C2CC2)C(F)(F)F)C1=O` (single isomer, unassigned) [Example 274], 4 nM. Then `O=C(O)C[C@H]1O[C@H](c2cccc(Cl)c2)[C@@H](c2ccc(Cl)cc2)N([C@H](CN(c2cc(F)ccc2F)S(=O)(=O)C2CC2)C2CC2)C1=O` (single isomer, unassigned) [Example 275, 2-((2R,5R,6R)-6-(3-Chlorophenyl)-5-(4-chlorophenyl)-4-((S)-1-cyclopropyl-2-(N-(2,5-difluorophenyl)cyclopropanesulfonamido)ethyl)-3-oxomorpholin-2-yl)acetic acid or 2-((2S,5R,6R)-6-(3-chlorophenyl)-5-(4-chlorophenyl)-4-((S)-1-cyclopropyl-2-(N-(2,5-difluorophenyl)cyclopropanesulfonamido)ethyl)-3-oxomorpholin-2-yl)acetic acid], with less than 1 nM. To `O=C(O)C[C@H]1O[C@H](c2cccc(Cl)c2)[C@@H](c2ccc(Cl)cc2)N([C@H](CN(c2cc(F)ccc2F)S(=O)(=O)C2CC2)C2CC2)C1=O` (single isomer, unassigned) [Example 276, 2-((2R,5R,6R)-6-(3-Chlorophenyl)-5-(4-chlorophenyl)-4-((S)-1-cyclopropyl-2-(N-(2,5-difluorophenyl)cyclopropanesulfonamido)ethyl)-3-oxomorpholin-2-yl)acetic acid or 2-((2S,5R,6R)-6-(3-chlorophenyl)-5-(4-chlorophenyl)-4-((S)-1-cyclopropyl-2-(N-(2,5-difluorophenyl)cyclopropanesulfonamido)ethyl)-3-oxomorpholin-2-yl)acetic acid] belongs less than 1 nM; to `O=C(O)C[C@H]1O[C@H](c2cccc(Cl)c2)[C@@H](c2ccc(Cl)cc2)N([C@H](CN(c2ccccc2F)S(=O)(=O)C2CC2)CC(F)(F)F)C1=O` (single isomer, unassigned) [Example 277], 106 nM. In turn, `O=C(O)C[C@H]1O[C@H](c2cccc(Cl)c2)[C@@H](c2ccc(Cl)cc2)N([C@H](CN(c2ccccc2F)S(=O)(=O)C2CC2)CC(F)(F)F)C1=O` (single isomer, unassigned) [Example 278] showed an IC50 of 84 nM. To `O=C(O)C[C@H]1O[C@H](c2cccc(Cl)c2)[C@@H](c2ccc(Cl)cc2)N([C@H](CN(c2ccccc2F)S(=O)(=O)C2CC2)CC(F)(F)F)C1=O` (single isomer, unassigned) [Example 279] belongs 39 nM; to `CC[C@@H](CS(=O)(=O)[C@H](C)C(C)C)N1C(=O)[C@H](CC(=O)O)O[C@H](c2cccc(Cl)c2)[C@H]1c1ccc(Cl)cc1` (single isomer, unassigned) [Example 282], 2 nM; to `CC[C@@H](CS(=O)(=O)[C@H](C)C(C)C)N1C(=O)[C@H](CC(=O)O)O[C@H](c2cccc(Cl)c2)[C@H]1c1ccc(Cl)cc1` (single isomer, unassigned) [Example 283], 3 nM. To `CC[C@@H](CS(=O)(=O)[C@H](C)C(C)C)N1C(=O)[C@H](CC(=O)O)O[C@H](c2cccc(Cl)c2)[C@H]1c1ccc(Cl)cc1` (single isomer, unassigned) [Example 284] belongs 5 nM. `CC[C@@H](CS(=O)(=O)[C@H](C)C(C)C)N1C(=O)[C@H](CC(=O)O)O[C@H](c2cccc(Cl)c2)[C@H]1c1ccc(Cl)cc1` (single isomer, unassigned) [Example 285] came in with an IC50 of 9 nM. With `O=C(O)C[C@H]1O[C@H](c2cccc(Cl)c2)[C@@H](c2ccc(Cl)cc2)N([C@H](CS(=O)(=O)c2ccncc2)C2CC2)C1=O` (single isomer, unassigned) [Example 286, 2-((2R,5R,6R)-6-(3-Chlorophenyl)-5-(4-chlorophenyl)-4-((S)-1-cyclopropyl-2-(pyridin-4-ylsulfonyl)ethyl)-3-oxomorpholin-2-yl)acetic acid or 2-((2S,5R,6R)-6-(3-chlorophenyl)-5-(4-chlorophenyl)-4-((S)-1-cyclopropyl-2-(pyridin-4-ylsulfonyl)ethyl)-3-oxomorpholin-2-yl)acetic acid], the IC50 was determined as 2 nM. Compared with the last compound, the IC50 is about 4.5-fold lower. Then `O=C(O)C[C@H]1O[C@H](c2cccc(Cl)c2)[C@@H](c2ccc(Cl)cc2)N([C@H](CS(=O)(=O)c2ccncc2)C2CC2)C1=O` (single isomer, unassigned) [Example 287, 2-((2R,5R,6R)-6-(3-Chlorophenyl)-5-(4-chlorophenyl)-4-((S)-1-cyclopropyl-2-(pyridin-4-ylsulfonyl)ethyl)-3-oxomorpholin-2-yl)acetic acid or 2-((2S,5R,6R)-6-(3-chlorophenyl)-5-(4-chlorophenyl)-4-((S)-1-cyclopropyl-2-(pyridin-4-ylsulfonyl)ethyl)-3-oxomorpholin-2-yl)acetic acid], with 5 nM; and `CC(C)(O)CS(=O)(=O)C[C@H](C1CC1)N1C(=O)[C@@H](CC(=O)O)O[C@H](c2cccc(Cl)c2)[C@H]1c1ccc(Cl)cc1` (single isomer, unassigned) [Example 288, 2-((2R,5R,6R)-6-(3-Chlorophenyl)-5-(4-chlorophenyl)-4-((S)-1-cyclopropyl-2-((2-hydroxy-2-methylpropyl)sulfonyl)ethyl)-3-oxomorpholin-2-yl)acetic acid or 2-((2S,5R,6R)-6-(3-chlorophenyl)-5-(4-chlorophenyl)-4-((S)-1-cyclopropyl-2-((2-hydroxy-2-methylpropyl)sulfonyl)ethyl)-3-oxomorpholin-2-yl)acetic acid], with less than 1 nM.

For the origin of these results see patent US9376425B2, “Heterocyclic compounds as MDM2 inhibitors for the treatment of cancer” (AMGEN INC., priority 2011, dated 2016).
